{"source": "patent US20040248223A1", "about": "“Reduction of interfering peroxidase activity in peroxidase based detection methods” (IDEXX Laboratories, Inc., priority 2003, published 2004)", "key": {"HRP [1]": {"target": "T1, HRP (Armoracia rusticana, UniProt P00433)", "T1 sequence (P00433 31-338)": "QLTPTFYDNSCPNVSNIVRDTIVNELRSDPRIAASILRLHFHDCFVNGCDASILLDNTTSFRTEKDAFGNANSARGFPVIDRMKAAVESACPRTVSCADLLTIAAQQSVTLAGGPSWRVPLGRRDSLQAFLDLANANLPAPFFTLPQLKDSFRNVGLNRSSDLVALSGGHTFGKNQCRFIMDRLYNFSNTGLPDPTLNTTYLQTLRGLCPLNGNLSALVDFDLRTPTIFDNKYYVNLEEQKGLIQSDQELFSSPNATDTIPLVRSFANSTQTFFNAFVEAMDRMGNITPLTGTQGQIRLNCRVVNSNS", "settings": "for effect on assay sensitivity: both substrates (TMBlue, TMBM); for 50 μM azide (mA) / 100 μM azide (mA) / 500 μM Azide (mA): serum", "description": "(§1) SLF5 glass fiber discs, 6.4 mm diameter (Whatman, Inc.) were sensitized with 13 μL of 1 mg/mL rabbit anti-heartworm antibody containing 0.7% sodium bicarbonate, 2% sucrose, and 30 μg/mL FDC Blue 1 dye. Heartworm antibody can be produced from heartworm antigen prepared by disrupting a parasitic worm in an aqueous buffer solution, centrifuging to remove insoluble and particulate components, adding of trichloroacetic acid to a concentration of 15% w/v, centrifuging to remove insoluble components, dialyzing against an aqueous buffer solution and lyophilizing. This antigen preparation is used to produce antibodies in mammals using standard methods (see, e.g., Harlow, E. and D. Lane, 1988, “Antibodies: A Laboratory manual”, Cold Spring Harbor Laboratory, Cod Spring Harbor, N.Y., USA, ISBN 0-87969-314-2 pp 92-286).\n(§2) The discs were washed with buffer containing, per liter, 25 mmol of 3-(N-morpholino)-2-hydroxypropane sulfonic acid MOPSO, 100 mmol of NaCl, 1 g of Brij® 35 and 1 g of tetrasodium EDTA, pH 7.4. Two 15 μL drops of a mixture of 100 μL of whole canine blood containing 950 eosinophils per μL (normal range: 100-1500 eosinophils per μL), 0.5%-25% v/v of heartworm extract in fetal bovine serum and 25 μL of 100 μg/mL of chicken anti-heartworm HRP-conjugated antibody was added to the glass fiber disc and allowed to incubate for 5 minutes at 23C. The discs were washed with a buffered bland protein solution containing 1% Triton X-100 and transferred to polystyrene microwells.\n(§3) A peroxidase substrate containing 100 μmol per liter of sodium azide, was added to the discs and allowed to incubate for 10 minutes, after which time the amount of blue color produced was measured by bichromatic absorbance at 650 nm-562 nm, compensating the background contribution from the glass fiber matrix. Duplicate discs were also processed in an identical manner except these were incubated instead with the peroxidase substrate but lacking in azide.\nThe TMBlue® substrate was incubated with the glass fiber discs for 3 minutes and TMBM substrate was incubated for 15 minutes until bichromatic measurement at 650 mn-562 nm."}, "MPO": {"target": "MPO (Homo sapiens, UniProt P05164)", "sequence (P05164 279-745 limits assumed)": "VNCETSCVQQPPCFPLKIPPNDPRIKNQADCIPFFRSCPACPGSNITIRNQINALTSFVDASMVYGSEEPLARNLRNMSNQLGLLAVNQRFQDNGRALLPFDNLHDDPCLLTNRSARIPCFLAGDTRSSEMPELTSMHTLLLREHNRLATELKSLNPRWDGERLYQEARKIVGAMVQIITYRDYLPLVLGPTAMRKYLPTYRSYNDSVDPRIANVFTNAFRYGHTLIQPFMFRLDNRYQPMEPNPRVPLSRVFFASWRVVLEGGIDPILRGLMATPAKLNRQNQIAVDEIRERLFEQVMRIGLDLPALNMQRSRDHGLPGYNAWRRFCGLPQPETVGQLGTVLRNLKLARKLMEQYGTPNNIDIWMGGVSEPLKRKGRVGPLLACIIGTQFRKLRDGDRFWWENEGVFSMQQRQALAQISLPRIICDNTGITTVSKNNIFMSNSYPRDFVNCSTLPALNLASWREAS", "sequence (P05164 165-273 limits assumed)": "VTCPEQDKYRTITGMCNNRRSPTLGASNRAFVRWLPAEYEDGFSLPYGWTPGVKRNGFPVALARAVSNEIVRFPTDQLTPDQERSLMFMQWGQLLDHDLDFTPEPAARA", "description": "(§4) Assays were run to determine the selectivity of azide for interference from EPO, MPO and hemoglobin. Activities were measured in solution using a peroxidase substrate consisting of, per liter, 1.4 mmol of TMB, 0.3 mmol of hydrogen peroxide, 20 mmol of sodium chloride, 30 mg of Triton X-100, and 100 g of sucrose. HRP was a conjugate of chicken antibody (used in Example 1). MPO and EPO were essentially homogeneous commercial preparations isolated from human leukocytes. Hemoglobin (Hgb) was obtained as a Triton X-100 lysate of feline erythrocytes."}, "Hemoglobin (Hgb)": {"target": "Hemoglobin (Hgb) (Felis catus, UniProt P07405+P07412)", "sequence (P07405 whole entry)": "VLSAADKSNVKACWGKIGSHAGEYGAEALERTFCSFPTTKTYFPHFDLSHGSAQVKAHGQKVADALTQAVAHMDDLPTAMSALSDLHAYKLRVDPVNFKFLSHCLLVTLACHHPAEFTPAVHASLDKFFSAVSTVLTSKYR", "sequence (P07412 whole entry)": "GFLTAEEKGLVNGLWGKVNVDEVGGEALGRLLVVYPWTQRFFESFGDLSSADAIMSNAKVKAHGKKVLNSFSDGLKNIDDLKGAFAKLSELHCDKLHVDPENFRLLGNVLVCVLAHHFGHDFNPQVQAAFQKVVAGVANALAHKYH", "description": "as §4"}, "EPO": {"target": "EPO (Homo sapiens, UniProt P11678)", "sequence (P11678 251-715 limits assumed)": "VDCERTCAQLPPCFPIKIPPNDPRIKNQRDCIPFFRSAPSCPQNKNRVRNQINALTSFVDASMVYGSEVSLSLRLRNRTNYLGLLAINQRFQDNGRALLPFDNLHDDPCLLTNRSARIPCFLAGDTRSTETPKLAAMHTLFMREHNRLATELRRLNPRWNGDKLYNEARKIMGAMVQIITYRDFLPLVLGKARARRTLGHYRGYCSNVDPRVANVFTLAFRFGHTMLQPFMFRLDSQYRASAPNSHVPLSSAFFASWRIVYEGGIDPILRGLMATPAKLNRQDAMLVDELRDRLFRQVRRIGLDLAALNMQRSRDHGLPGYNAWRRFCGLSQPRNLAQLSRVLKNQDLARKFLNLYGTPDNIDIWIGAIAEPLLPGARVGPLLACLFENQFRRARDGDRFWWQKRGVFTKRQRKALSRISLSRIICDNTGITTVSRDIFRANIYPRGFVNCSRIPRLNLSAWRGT", "sequence (P11678 140-250 limits assumed)": "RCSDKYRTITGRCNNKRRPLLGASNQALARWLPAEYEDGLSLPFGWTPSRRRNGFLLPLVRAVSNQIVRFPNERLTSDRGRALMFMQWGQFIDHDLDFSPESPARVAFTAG", "description": "as §4"}, "HRP [2]": {"target": "T1, HRP", "description": "as §4"}, "[3]": {"description": "Above pH 6 the activity of some peroxidase substrates declines. […] Incubation times longer than 30 minutes have not been very useful in peroxidase-based analysis due to substrate evaporation and gradual inactivation of peroxidase by peroxide, which occurs naturally after a limited number of catalytic cycles."}, "[4]": {"settings": "even down to pH 3; cited from earlier work"}, "[5]": {"tested_on": "endogenous canine peroxidase", "settings": "100 μmol per liter sodium azide, whole canine blood, 10 minutes", "description": "as §1, §2, §3"}, "[6]": {"settings": "TMBM substrate, 15 minutes, heartworm antigen 0%"}, "[7]": {"settings": "TMBM substrate, 15 minutes, heartworm antigen 5%"}, "[8]": {"settings": "TMBM substrate, 15 minutes, heartworm antigen 10%"}, "[9]": {"settings": "TMBM substrate, 15 minutes, heartworm antigen 25%"}, "[10]": {"settings": "TMBM substrate, 15 minutes, heartworm antigen 50%"}, "[11]": {"settings": "TMBM substrate, 15 minutes, heartworm antigen 100%"}, "[12]": {"settings": "TMBlue substrate, 3 minutes, heartworm antigen 0%"}, "[13]": {"settings": "TMBlue substrate, 3 minutes, heartworm antigen 5%"}, "[14]": {"settings": "TMBlue substrate, 3 minutes, heartworm antigen 10%"}, "[15]": {"settings": "TMBlue substrate, 3 minutes, heartworm antigen 25%"}, "[16]": {"settings": "TMBlue substrate, 3 minutes, heartworm antigen 50%"}, "[17]": {"settings": "TMBlue substrate, 3 minutes, heartworm antigen 100%"}}, "note": "Like-named read-outs stand apart in the source and are kept apart here."}
{"smiles": "[N-]=[N+]=[N-].[Na+]", "note": "[azide, sodium azide]", "values": [{"measurement": "effect on assay sensitivity", "setting": "HRP [1]; 500 μM azide", "value": "the decrease in sensitivity is not severe"}, {"measurement": "50 μM azide (mA)", "setting": "HRP [1]; [6]", "value": 46, "unit": "mA"}, {"measurement": "50 μM azide (mA)", "setting": "HRP [1]; [7]", "value": 138, "unit": "mA"}, {"measurement": "50 μM azide (mA)", "setting": "HRP [1]; [8]", "value": 196, "unit": "mA"}, {"measurement": "50 μM azide (mA)", "setting": "HRP [1]; [9]", "value": 264, "unit": "mA"}, {"measurement": "50 μM azide (mA)", "setting": "HRP [1]; [10]", "value": 535, "unit": "mA"}, {"measurement": "50 μM azide (mA)", "setting": "HRP [1]; [11]", "value": 776, "unit": "mA"}, {"measurement": "100 μM azide (mA)", "setting": "HRP [1]; [6]", "value": 73, "unit": "mA"}, {"measurement": "100 μM azide (mA)", "setting": "HRP [1]; [7]", "value": 123, "unit": "mA"}, {"measurement": "100 μM azide (mA)", "setting": "HRP [1]; [8]", "value": 197, "unit": "mA"}, {"measurement": "100 μM azide (mA)", "setting": "HRP [1]; [9]", "value": 324, "unit": "mA"}, {"measurement": "100 μM azide (mA)", "setting": "HRP [1]; [10]", "value": 511, "unit": "mA"}, {"measurement": "100 μM azide (mA)", "setting": "HRP [1]; [11]", "value": 800, "unit": "mA"}, {"measurement": "500 μM Azide (mA)", "setting": "HRP [1]; TMBM substrate, 15 minutes, 500 μM azide, heartworm antigen 0%", "value": 37, "unit": "mA"}, {"measurement": "500 μM Azide (mA)", "setting": "HRP [1]; TMBM substrate, 15 minutes, 500 μM azide, heartworm antigen 5%", "value": 70, "unit": "mA"}, {"measurement": "500 μM Azide (mA)", "setting": "HRP [1]; TMBM substrate, 15 minutes, 500 μM azide, heartworm antigen 10%", "value": 112, "unit": "mA"}, {"measurement": "500 μM Azide (mA)", "setting": "HRP [1]; TMBM substrate, 15 minutes, 500 μM azide, heartworm antigen 25%", "value": 173, "unit": "mA"}, {"measurement": "500 μM Azide (mA)", "setting": "HRP [1]; TMBM substrate, 15 minutes, 500 μM azide, heartworm antigen 50%", "value": 363, "unit": "mA"}, {"measurement": "500 μM Azide (mA)", "setting": "HRP [1]; TMBM substrate, 15 minutes, 500 μM azide, heartworm antigen 100%", "value": 491, "unit": "mA"}, {"measurement": "50 μM azide (mA)", "setting": "HRP [1]; [12]", "value": 22, "unit": "mA"}, {"measurement": "50 μM azide (mA)", "setting": "HRP [1]; [13]", "value": 64, "unit": "mA"}, {"measurement": "50 μM azide (mA)", "setting": "HRP [1]; [14]", "value": 119, "unit": "mA"}, {"measurement": "50 μM azide (mA)", "setting": "HRP [1]; [15]", "value": 270, "unit": "mA"}, {"measurement": "50 μM azide (mA)", "setting": "HRP [1]; [16]", "value": 408, "unit": "mA"}, {"measurement": "50 μM azide (mA)", "setting": "HRP [1]; [17]", "value": 646, "unit": "mA"}, {"measurement": "100 μM azide (mA)", "setting": "HRP [1]; [12]", "value": 31, "unit": "mA"}, {"measurement": "100 μM azide (mA)", "setting": "HRP [1]; [13]", "value": 110, "unit": "mA"}, {"measurement": "100 μM azide (mA)", "setting": "HRP [1]; [14]", "value": 150, "unit": "mA"}, {"measurement": "100 μM azide (mA)", "setting": "HRP [1]; [15]", "value": 395, "unit": "mA"}, {"measurement": "100 μM azide (mA)", "setting": "HRP [1]; [16]", "value": 628, "unit": "mA"}, {"measurement": "100 μM azide (mA)", "setting": "HRP [1]; [17]", "value": 1046, "unit": "mA"}, {"measurement": "500 μM Azide (mA)", "setting": "HRP [1]; TMBlue substrate, 3 minutes, 500 μM azide, heartworm antigen 0%", "value": 21, "unit": "mA"}, {"measurement": "500 μM Azide (mA)", "setting": "HRP [1]; TMBlue substrate, 3 minutes, 500 μM azide, heartworm antigen 5%", "value": 73, "unit": "mA"}, {"measurement": "500 μM Azide (mA)", "setting": "HRP [1]; TMBlue substrate, 3 minutes, 500 μM azide, heartworm antigen 10%", "value": 121, "unit": "mA"}, {"measurement": "500 μM Azide (mA)", "setting": "HRP [1]; TMBlue substrate, 3 minutes, 500 μM azide, heartworm antigen 25%", "value": 265, "unit": "mA"}, {"measurement": "500 μM Azide (mA)", "setting": "HRP [1]; TMBlue substrate, 3 minutes, 500 μM azide, heartworm antigen 50%", "value": 462, "unit": "mA"}, {"measurement": "500 μM Azide (mA)", "setting": "HRP [1]; TMBlue substrate, 3 minutes, 500 μM azide, heartworm antigen 100%", "value": 734, "unit": "mA"}, {"measurement": "effect on assay sensitivity", "setting": "HRP [1]; up to 100 μM azide", "value": "does not produce a significant diminution of assay sensitivity"}, {"measurement": "% of control activity (without azide), MPO", "setting": "MPO; 3 μM azide", "value": 63.1, "unit": "%"}, {"measurement": "% of control activity (without azide), MPO", "setting": "MPO; 30 μM azide", "value": 15.5, "unit": "%"}, {"measurement": "% of control activity (without azide), Hgb", "setting": "Hemoglobin (Hgb); 3 μM azide", "value": 99.7, "unit": "%"}, {"measurement": "% of control activity (without azide), Hgb", "setting": "Hemoglobin (Hgb); 30 μM azide", "value": 26.4, "unit": "%"}, {"measurement": "% of control activity (without azide), EPO", "setting": "EPO; 3 μM azide", "value": 13.4, "unit": "%"}, {"measurement": "% of control activity (without azide), EPO", "setting": "EPO; 30 μM azide", "value": 0.7, "unit": "%"}, {"measurement": "% of control activity (without azide), HRP", "setting": "HRP [2]; 3 μM azide", "value": 101, "unit": "%"}, {"measurement": "% of control activity (without azide), HRP", "setting": "HRP [2]; 30 μM azide", "value": 83.5, "unit": "%"}, {"measurement": "fraction of azide that evaporates", "setting": "[3]; microwell, 100 μL of 5 mM azide in succinate buffer, below pH 4.5, less than a half hour", "value": "One-half to two-thirds"}, {"measurement": "fraction of azide lost", "setting": "[3]; microwell, 100 μL of 5 mM azide in succinate buffer, pH 5.0", "value": "one-third"}, {"measurement": "loss of azide", "setting": "[3]; pH 5.5 and above, over a half hour", "value": "no significant loss"}, {"measurement": "loss of azide from closed containers", "setting": "[4]", "value": "no azide is lost"}, {"measurement": "azide added mA650-562", "setting": "[5]; antigen 0%", "value": 118, "unit": "mA"}, {"measurement": "azide added mA650-562", "setting": "[5]; antigen 0.5%", "value": 97, "unit": "mA"}, {"measurement": "azide added mA650-562", "setting": "[5]; antigen 1%", "value": 123, "unit": "mA"}, {"measurement": "azide added mA650-562", "setting": "[5]; antigen 2.5%", "value": 147, "unit": "mA"}, {"measurement": "azide added mA650-562", "setting": "[5]; antigen 5%", "value": 149, "unit": "mA"}, {"measurement": "azide added mA650-562", "setting": "[5]; antigen 10%", "value": 179, "unit": "mA"}, {"measurement": "azide added mA650-562", "setting": "[5]; antigen 25%", "value": 305, "unit": "mA"}]}
